Results as given in patent publication US20240197805A1, “COMPOSITE FOR RELIEVING […], PREPARATION METHOD THEREFOR, USE THEREOF, DRUG, FOOD AND HEALTH-CARE PRODUCT” (INFINITUS ( CHINA ) COMPANY LTD., priority 2022, published 2024).

Columns and labels:
Assay type in all cases: in vivo
ICR mice [1] = test: Pentobarbital sodium subthreshold dose hypnosis test; details: mice gavaged 14 days (250 mg/kg samples; GABA 100 mg/kg); pentobarbital sodium 30 mg/kg BW i.p.; animals asleep within 30 min; *p<0.05, **p<0.01 vs blank group
Description: (§1) • 1. Principle: a pentobarbital sodium subthreshold dose hypnosis test, a sleep latency test and a sleep extension time change test are common test methods for a sleep improvement performance of a health-care food. The method takes a disappearance of a righting reflex as an observation index and is specifically represented as follows: when a mouse is placed on the back to lie, if the mouse cannot turn over for more than 60 s, the righting reflex is considered to disappear, and the mouse falls sleep; if a body position can be righted immediately (within 5 s), the righting reflex is considered to be recovered and the mouse is in a waking state; and a time from the disappearance of the righting reflex to the recovery is an animal sleeping time. • 2. Materials: ICR mice come from the Experimental Animal Center of Zhejiang Academy of Medical Sciences and have the production license number of SCXK (Zhe). The mice are all male, weigh 18 to 22 g and are divided into 10 mice/group. The mice are adapted to the environment in an SPF animal room for 5 to 7 days, wherein environment conditions of the SPF animal room are as follows: a temperature of 20 to 26° C., a humidity of 40% to 70%, and light and shade alternation time of 12 h/12 h. • 3. […]

ICR mice [2] = test: Sleep latency experiment (pentobarbital sodium); details: mice gavaged 14 days (250 mg/kg samples; GABA 100 mg/kg); pentobarbital sodium 200 mg/kg BW i.p.; *p<0.05 vs blank group
Description: as §1

ICR mice [3] = test: Sleep extension time change experiment (pentobarbital sodium); details: mice gavaged 14 days (250 mg/kg samples; GABA 100 mg/kg); pentobarbital sodium 30 mg/kg BW i.p.; *p<0.05, **p<0.01 vs blank group
Description: as §1

NCCCC(=O)O [Positive control, y-aminobutyric acid]
Sleeping rate (ICR mice [1]): 90.00** % | Sleep latency x ± s (ICR mice [2]): 5.60 ± 1.48* min | Sleeping time x ± s (ICR mice [3]): 92.36 ± 16.67** min
